From patent US11447465B2, “Pharmaceutical compounds for treatment of medical disorders” (Achillion Pharmaceuticals, Inc., priority 2017, dated 2022)
Read-outs that look alike come from different tables or passages of the source.

Biological target: Human Factor D (Homo sapiens (Human), UniProt P00746)
Assay: Human Factor D Assay
Format: biochemical
Method: Human Factor D (purified from human serum, Complement Technology, Inc.) at 80 nM final concentration is incubated with test compound at various concentrations for 5 min at room temperature in 50 mM Tris, 1M NaCl, pH 7.5. A synthetic substrate Z-L-Lys-SBzl and DTNB (Ellman's reagent) are added to final concentrations of 100 μM each. Absorbance at 405 nm (A405) is recorded at 30 second intervals for 30 min using a microplate spectrophotometer. IC50 values are calculated by nonlinear regression of Complement Factor D reaction rates as a function of test compound concentration.

[1] = Table 5, Human Factor D 80 nM, substrate Z-L-Lys-SBzl, read-out: IC50 (Stars)
[2] = Table 6, Human Factor D 80 nM, substrate Z-L-Lys-SBzl, read-out: IC5 (Stars)

Chain of Human Factor D (P00746 26-253): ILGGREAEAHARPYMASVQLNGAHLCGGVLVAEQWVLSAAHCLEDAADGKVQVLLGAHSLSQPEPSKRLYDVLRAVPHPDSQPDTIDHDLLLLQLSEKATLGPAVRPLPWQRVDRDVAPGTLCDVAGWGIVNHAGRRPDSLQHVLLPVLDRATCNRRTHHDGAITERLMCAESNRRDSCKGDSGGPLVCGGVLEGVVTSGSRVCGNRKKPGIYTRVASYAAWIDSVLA

IC50 (Table 7, read-out: IC5 (Stars)) [nM]	SMILES	IC50 [1] [nM]	also measured
> 10000	COc1ncc(-c2cc(CC(=O)N3C[C@H](F)C[C@H]3C(=O)Nc3cccc(-c4ccccc4Cl)c3F)cc(-c3cnc(OC)nc3)c2)cn1 [Compound T-110, (2S,4R)-1-(2-(3,5-bis(2-methoxypyrimidin-5-yl)phenyl)acetyl)-N-(2′-chloro-2-fluoro-[1,1′-biphenyl]-3-yl)-4-fluoropyrrolidine-2-carboxamide]		
> 10000	Cc1ncc(-c2cc(CC(=O)N3[C@H](C(=O)Nc4nc(Br)ccc4C)C[C@@]4(C)C[C@@H]34)cc(-c3cnc(O)nc3)c2)cn1 [Compound T-117, (1R,3S,5R)-N-(6-bromo-3-methylpyridin-2-yl)-2-(2-(3-(2-hydroxypyrimidin-5-yl)-5-(2-methylpyrimidin-5-yl)phenyl)acetyl)-5-methyl-2-azabicyclo[3.1.0]hexane-3-carboxamide]		
< 1000	CC(=O)c1nn(CC(=O)N2C(C(=O)Nc3nc(Br)ccc3C)C[C@@]3(Cn4cc(C5CC5)nn4)C[C@@H]23)c2cnccc12 (stereo partly drawn) [Compound T-139, (1R,3S,5R)-2-(2-(3-acetyl-1H-pyrazolo[3,4-c]pyridin-1-yl)acetyl)-N-(6-bromo-3-methylpyridin-2-yl)-5-((4-cyclopropyl-1H-1,2,3-triazol-1-yl)methyl)-2-azabicyclo[3.1.0]hexane-3-carboxamide]		
> 10000	Cc1ncc(-c2cc(CC(=O)N3C[C@H](F)C[C@H]3C(=O)Nc3cccc(-c4ccccc4Cl)c3F)cc(-c3cnc(O)nc3)c2)cn1 [Compound T-118, (2S,4R)-N-(2′-chloro-2-fluoro-[1,1′-biphenyl]-3-yl)-4-fluoro-1-(2-(3-(2-hydroxypyrimidin-5-yl)-5-(2-methylpyrimidin-5-yl)phenyl)acetyl)pyrrolidine-2-carboxamide]		
< 1000	CC(=O)c1cc(CC(=O)N2C[C@H](F)C[C@H]2C(=O)Nc2cccc(-c3ccccc3Cl)c2F)cc(-c2cnc(C)nc2)c1 [Compound T-107, (2S,4R)-1-(2-(3-acetyl-5-(2-methylpyrimidin-5-yl)phenyl)acetyl)-N-(2′-chloro-2-fluoro-[1,1′-biphenyl]-3-yl)-4-fluoropyrrolidine-2-carboxamide]		
> 10000	Cc1ccc(Br)nc1NC(=O)[C@@H]1C[C@@]2(C)C[C@H]2N1C(=O)Cc1cccc(-c2nnn[nH]2)c1 [Compound T-91, (1R,3S,5R)-2-(2-(3-(1H-tetrazol-5-yl)phenyl)acetyl)-N-(6-bromo-3-methylpyridin-2-yl)-5-methyl-2-azabicyclo[3.1.0]hexane-3-carboxamide]		
1000 to 10000	Cc1ccc(Br)nc1NC(=O)[C@@H]1C[C@@]2(C)C[C@H]2N1C(=O)Cc1ccc2[nH]nc(C(=O)O)c2c1 [Compound T-158, 5-(2-((1R,3S,5R)-3-((6-bromo-3-methylpyridin-2-yl)carbamoyl)-5-methyl-2-azabicyclo[3.1.0]hexan-2-yl)-2-oxoethyl)-1H-indazole-3-carboxylic acid]		
1000 to 10000	Cc1ncc(-c2cc(C#N)cc(CC(=O)N3C[C@H](F)C[C@H]3C(=O)Nc3cccc(Br)n3)c2)cn1 [Compound T-170, (2S,4R)-N-(6-bromopyridin-2-yl)-1-(2-(3-cyano-5-(2-methylpyrimidin-5-yl)phenyl)acetyl)-4-fluoropyrrolidine-2-carboxamide]		
> 10000	COc1ncc(-c2cccc(CC(=O)N3[C@H](C(=O)Nc4nc(Br)ccc4C)C[C@@]4(C)C[C@@H]34)c2)cn1 [Compound T-95, (1R,3S,5R)-N-(6-bromo-3-methylpyridin-2-yl)-2-(2-(3-(2-methoxypyrimidin-5-yl)phenyl)acetyl)-5-methyl-2-azabicyclo[3.1.0]hexane-3-carboxamide]		

More lines, now with the values behind:

SMILES	IC50 (Table 7, read-out: IC5 (Stars)) [nM]	IC50 [1] [nM]	also measured
CC(=O)c1cn(CC(=O)N2[C@H]3C[C@@]3(CN(C)C)C[C@H]2C(=O)NCc2cccc(Cl)c2F)c2cc(P(C)(=O)O)ccc12 [Compound T-48, (3-acetyl-1-(2-((1S,3S,5S)-3-((3-chloro-2-fluorobenzyl)carbamoyl)-5-((dimethylamino)methyl)-2-azabicyclo[3.1.0]hexan-2-yl)-2-oxoethyl)-1H-indol-6-yl)(methyl)phosphinic acid]		1000 to 10000	
CC(=O)c1nn(CC(=O)N2[C@H]3C[C@@]3(CN(C)C)C[C@H]2C(=O)Nc2nc(Br)ccc2C)c2cc(C(=O)NS(=O)(=O)C3CC3)ccc12 [Compound T-50, 3-acetyl-1-(2-((1S,3S,5S)-3-((6-bromo-3-methylpyridin-2-yl)carbamoyl)-5-((dimethylamino)methyl)-2-azabicyclo[3.1.0]hexan-2-yl)-2-oxoethyl)-N-(cyclopropylsulfonyl)-1H-indazole-6-carboxamide]		1000 to 10000	
CC(=O)c1nn(CC(=O)N2[C@H](C(=O)Nc3nc(Br)ccc3C)C[C@@]3(C)C[C@@H]23)c2ccccc12 [Compound T-13, (1R,3S,5R)-2-(2-(3-acetyl-1H-indazol-1-yl)acetyl)-N-(6-bromo-3-methylpyridin-2-yl)-5-methyl-2-azabicyclo[3.1.0]hexane-3-carboxamide]		< 1000	
CC(=O)c1nn(CC(=O)N2[C@H](C(=O)Nc3nc(Br)ccc3C)C[C@@]3(C)C[C@@H]23)c2cc3nc(C)oc3cc12 [Compound T-93, (1R,3S,5R)-2-(2-(3-acetyl-6-methyl-1H-oxazolo[5,4-f]indazol-1-yl)acetyl)-N-(6-bromo-3-methylpyridin-2-yl)-5-methyl-2-azabicyclo[3.1.0]hexane-3-carboxamide]	< 1000		
CC(=O)c1nn(CC(=O)N2[C@H](C(=O)Nc3nc(Br)ccc3C)C[C@@]3(C)C[C@@H]23)c2cc(OCP(=O)(O)O)ccc12 [Compound T-132, (((3-acetyl-1-(2-((1R,3S,5R)-3-((6-bromo-3-methylpyridin-2-yl)carbamoyl)-5-methyl-2-azabicyclo[3.1.0]hexan-2-yl)-2-oxoethyl)-1H-indazol-6-yl)oxy)methyl)phosphonic acid]	< 1000		
CC(=O)c1cn(CC(=O)N2C[C@H](F)C[C@H]2C(=O)Nc2cccc(Br)n2)c(C)n1 [Compound T-20, (2S,4R)-1-(2-(4-acetyl-2-methyl-1H-imidazol-1-yl)acetyl)-N-(6-bromopyridin-2-yl)-4-fluoropyrrolidine-2-carboxamide]		> 10000	
CC(=O)c1nn(CC(=O)N2[C@H](C(=O)Nc3cccc(Br)n3)C[C@@]3(C)C[C@@H]23)c2cc(S(C)(=N)=O)ccc12 (stereo partly drawn) [Compound T-6, (1R,3S,5R)-2-(2-(3-acetyl-6-(S-methylsulfonimidoyl)-1H-indazol-1-yl)acetyl)-N-(6-bromopyridin-2-yl)-5-methyl-2-azabicyclo[3.1.0]hexane-3-carboxamide]		< 1000	
CC(=O)c1cc(C(N)=O)n(CC(=O)N2C[C@H](F)C[C@H]2C(=O)Nc2cccc(Br)n2)n1 [Compound T-23, 3-acetyl-1-(2-((2S,4R)-2-((6-bromopyridin-2-yl)carbamoyl)-4-fluoropyrrolidin-1-yl)-2-oxoethyl)-1H-pyrazole-5-carboxamide]		< 1000	
CC(=O)c1cc(C(=O)O)n(CC(=O)N2C[C@H](F)C[C@H]2C(=O)Nc2cccc(Br)n2)c1 [Compound T-17, 4-acetyl-1-(2-((2S,4R)-2-((6-bromopyridin-2-yl)carbamoyl)-4-fluoropyrrolidin-1-yl)-2-oxoethyl)-1H-pyrrole-2-carboxylic acid]		< 1000	
CC(=O)c1nn(CC(=O)N2C[C@H](F)C[C@H]2C(=O)Nc2cccc(Br)n2)c2cc(S(C)(=O)=NC#N)ccc12 (stereo partly shown) [Compound T-11]		< 1000	
CC(=O)c1ccn(CC(=O)N2C[C@H](F)C[C@H]2C(=O)Nc2cccc(Br)n2)n1 [Compound T-14, (2S,4R)-1-(2-(3-acetyl-1H-pyrazol-1-yl)acetyl)-N-(6-bromopyridin-2-yl)-4-fluoropyrrolidine-2-carboxamide]		< 1000	
CC(=O)c1cc(C(=O)NCc2cnc(C)nc2)n(CC(=O)N2C[C@H](F)C[C@H]2C(=O)Nc2cccc(Br)n2)c1 [Compound T-19, 4-acetyl-1-(2-((2S,4R)-2-((6-bromopyridin-2-yl)carbamoyl)-4-fluoropyrrolidin-1-yl)-2-oxoethyl)-N-((2-methylpyrimidin-5-yl)methyl)-1H-pyrrole-2-carboxamide]		< 1000	
CC(=O)c1nn(CC(=O)N2[C@H]3C[C@@]3(CN(C)C)C[C@H]2C(=O)NCc2cccc(Cl)c2F)c2cc(P(C)(=O)O)ccc12 [Compound T-38, (3-acetyl-1-(2-((1S,3S,5S)-3-((3-chloro-2-fluorobenzyl)carbamoyl)-5-((dimethylamino)methyl)-2-azabicyclo[3.1.0]hexan-2-yl)-2-oxoethyl)-1H-indazol-6-yl)(methyl)phosphinic acid]		1000 to 10000	
CS(=N)(=O)COc1ccc2c(C(N)=O)nn(CC(=O)N3C[C@H](F)C[C@H]3C(=O)Nc3cccc(-c4ccccc4Cl)c3F)c2c1 (stereo partly drawn) [Compound T-60, 1-(2-((2S,4R)-2-((2′-chloro-2-fluoro-[1,1′-biphenyl]-3-yl)carbamoyl)-4-fluoropyrrolidin-1-yl)-2-oxoethyl)-6-((S-methylsulfonimidoyl)methoxy)-1H-indazole-3-carboxamide]			IC50 [2]: < 1000 nM
CC(=O)c1nn(CC(=O)N2[C@H](C(=O)Nc3nc(Br)ccc3C)C[C@@]3(C)C[C@@H]23)c2ccc(Nc3cccn(-c4ccccn4)c3=O)cc12 [Compound T-92, (1R,3S,5R)-2-(2-(3-acetyl-5-((2-oxo-2H-[1,2′-bipyridin]-3-yl)amino)-1H-indazol-1-yl)acetyl)-N-(6-bromo-3-methylpyridin-2-yl)-5-methyl-2-azabicyclo[3.1.0]hexane-3-carboxamide]	< 1000		
CS(=O)(COc1ccc2c(C(N)=O)nn(CC(=O)N3C[C@H](F)C[C@H]3C(=O)Nc3cccc(-c4ccccc4Cl)c3F)c2c1)=NC#N (stereo partly shown) [Compound T-62]			IC50 [2]: < 1000 nM
